Experimental findings from ChEMBL document CHEMBL5365419, “Identification of a Protein Arginine Methyltransferase 7 (PRMT7)/Protein Arginine Methyltransferase 9 (PRMT9) Inhibitor” (J Med Chem, 2023) are described below.

Active and inactive are the calls of the source. No cut-off for these calls is given here.

The target in assay [1] is T1, Protein arginine N-methyltransferase 7 (Homo sapiens) (UniProt Q9NVM4).
T1 sequence (whole entry): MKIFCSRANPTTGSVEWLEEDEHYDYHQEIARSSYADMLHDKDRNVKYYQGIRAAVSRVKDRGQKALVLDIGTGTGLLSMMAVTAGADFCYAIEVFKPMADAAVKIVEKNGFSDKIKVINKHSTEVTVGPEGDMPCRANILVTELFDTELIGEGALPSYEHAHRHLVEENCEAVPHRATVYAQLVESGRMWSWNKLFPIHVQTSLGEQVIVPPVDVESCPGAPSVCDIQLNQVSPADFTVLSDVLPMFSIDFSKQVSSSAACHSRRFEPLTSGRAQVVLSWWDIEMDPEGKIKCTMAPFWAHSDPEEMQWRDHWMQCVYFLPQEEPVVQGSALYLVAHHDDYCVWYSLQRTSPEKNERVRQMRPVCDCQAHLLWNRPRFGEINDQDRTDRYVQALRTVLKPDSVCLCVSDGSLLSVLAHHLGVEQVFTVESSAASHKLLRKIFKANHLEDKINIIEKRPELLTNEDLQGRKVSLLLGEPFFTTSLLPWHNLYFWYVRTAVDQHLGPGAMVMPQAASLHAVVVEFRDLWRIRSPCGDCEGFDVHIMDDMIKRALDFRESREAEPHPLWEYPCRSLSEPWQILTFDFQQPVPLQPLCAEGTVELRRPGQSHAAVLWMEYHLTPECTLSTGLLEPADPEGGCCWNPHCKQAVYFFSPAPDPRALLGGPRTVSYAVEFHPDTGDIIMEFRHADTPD
Description: Inhibition of PRMT7 catalysed methylation of HSP70 at R469 residue in HEK293T cells assessed as increase in ratio of abundance of unmethylated over methylated peptides at 10 to 50 uM measured after 24 to 48 hrs by UHPLC- MS/MS analysis. The format is cell-based. The settings on record: dose 10-50 µM, time 24-48 hrs.

The target in assay [2] is T1, Protein arginine N-methyltransferase 7 (Homo sapiens). The assay is described as follows: Inhibition of PRMT7 catalysed methylation of HSP70 at R469 residue in HEK293T cells assessed as increase in ratio of abundance of unmethylated over methylated peptides at 10 to 50 uM by UHPLC- MS/MS analysis. The following applies: dose 10-50 µM, time 24-48 hrs, TDE = time-dependent effect. It is filed as cell-based.

Consider `COC(=O)c1cc(O)c2cc(NC(=O)NCCCNC(=N)NC[C@H]3O[C@@H](n4cnc5c(N)ncnc54)[C@H](O)[C@@H]3O)cc(C(F)(F)F)c2c1`, for which, in assay [1], the inhibition result was “Active”. Further, the inhibition result in assay [2] was “Tde”.
